According to ChEMBL document CHEMBL3232961, “Synthesis and evaluation of cyclohexane carboxylic acid head group containing isoxazole and thiazole analogs as DGAT1 inhibitors” (Eur J Med Chem, 2014):
pIC50: −log10 of the molar value.

Experiments:
[1] = target: T1, Diacylglycerol O-acyltransferase 1 (Homo sapiens, UniProt O75907); assay: Inhibition of human DGAT1 using 1,2-diacylglycerol/[14C]-oleoyl CoA as substrate assessed as [14C]-triglyceride formation after 10 mins by scintillation counting analysis
T1 sequence (O75907 whole entry): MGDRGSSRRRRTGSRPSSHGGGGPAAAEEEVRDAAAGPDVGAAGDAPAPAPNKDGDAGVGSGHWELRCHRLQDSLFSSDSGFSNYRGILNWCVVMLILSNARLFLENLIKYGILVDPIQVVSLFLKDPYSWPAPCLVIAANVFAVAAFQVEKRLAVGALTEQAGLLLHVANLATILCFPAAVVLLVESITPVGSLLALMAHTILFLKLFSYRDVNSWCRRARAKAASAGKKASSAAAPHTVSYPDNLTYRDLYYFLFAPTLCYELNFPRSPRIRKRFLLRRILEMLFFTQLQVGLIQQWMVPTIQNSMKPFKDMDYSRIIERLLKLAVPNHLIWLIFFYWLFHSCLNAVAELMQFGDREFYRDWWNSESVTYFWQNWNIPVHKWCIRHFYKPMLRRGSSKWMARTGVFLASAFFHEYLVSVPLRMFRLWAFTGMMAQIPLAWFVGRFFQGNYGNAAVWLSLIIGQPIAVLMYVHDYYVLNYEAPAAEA

Mus musculus = assay: Reduction of plasma triglyceride AUC (0 to 4 hrs) in fasted Swiss mouse at 3 mg/kg, po administered 1 hr followed by bolus dose of olive oil by acute fat tolerance test relative to vehicle-treated control; format: functional; design: scale not given: the % may be the effect or the level left

Row | SMILES | pIC50 [1] | Activity (Mus musculus)
1 | O=C(Nc1ccc(C2CCN(C(=O)[C@H]3CC[C@H](C(=O)O)CC3)CC2)cc1)c1nc(-c2ccccc2)oc1C(F)(F)F | 6.94 | 89%
2 | O=C(Nc1ccc(-c2cnc(C(=O)N[C@H]3CC[C@H](C(=O)O)CC3)s2)cc1)Nc1ccccc1F |  | 112%
